Values of other authors as cited in patent publication US20080124273A1, “Novel cationic metal complex radiopharmaceuticals” (priority 2004, published 2008).

Experiments:
[1] = background statement
[2] = background statement; remark: listed apart in the source

first-pass extraction [1] | uptake in liver and lungs [1] | lipophilicity [2] | T/B ratios [1] | heart uptake [1] | SMILES
low | high | – | – | – | [C-]#[N+]CC(C)(C)OC.[C-]#[N+]CC(C)(C)OC.[C-]#[N+]CC(C)(C)OC.[C-]#[N+]CC(C)(C)OC.[C-]#[N+]CC(C)(C)OC.[C-]#[N+]CC(C)(C)OC.[Tc] [^99mTc-Sestamibi]
– | – | high | poor | very low | CCOCCC[P]1(CCCOCC)CCN(CCOCC)CC[P](CCCOCC)(CCCOCC)[99Tc+]12(#[N])[S]C(N(CCOCC)CCOCC)=[S]2 [^99mTcN-DBODC6, [^99mTc(N)(N(CH2CH2OEt)2(PNP6)]^+]
